Structures can show the parent of a compound that is named as a salt. Where two headings read alike, the source gives them in different places.
Tested on: Colon 26 adenocarcinoma cells
Conditions: intravenous; for T/C (%) volume ratio of tumor against control groups 14 days after administration: CDF1 female mouse, Colon 26
Method: Colon 26 adenocarcinoma cells were transplanted subcutaneously in the subaxillary region of each CDF1 female mouse. When the volume of the tumor reached around 100 mm^3, the block copolymer-drug composite obtained in Example 1 or doxorubicin hydrochloride was administered intravenously. […] The antitumor effect of the drug was judged from the number of mice showing disappearance of tumor (cured) 60 days after transplantation and the tumor proliferation inhibition ratio 14 days after administration.

Structure (SMILES): COc1cccc2c1C(=O)c1c(O)c3c(c(O)c1C2=O)C[C@@](O)(C(=O)CO)C[C@@H]3O[C@H]1C[C@H](N)[C@H](O)[C@H](C)O1 [Doxorubicin hydrochloride, doxorubicin hydrochloride]
- Cure/n: number of mice showing cure after 60 days observation period/number in one group (dose 19.2 mg/kg): 2/10
- Tox./n: number of mice died with toxicity/number in one group (dose 19.2 mg/kg): 0/10
- T/C (%) volume ratio of tumor against control groups 14 days after administration (dose 19.2 mg/kg): 13.5%
- Cure/n: number of mice showing cure after 60 days observation period/number in one group (dose 24.0 mg/kg): 4/10
- Tox./n: number of mice died with toxicity/number in one group (dose 24.0 mg/kg): 0/10
- T/C (%) volume ratio of tumor against control groups 14 days after administration (dose 24.0 mg/kg): 6.4%
- Cure/n: number of mice showing cure after 60 days observation period/number in one group (dose 30.0 mg/kg): 3/10
- Tox./n: number of mice died with toxicity/number in one group (dose 30.0 mg/kg): 1/10
- T/C (%) volume ratio of tumor against control groups 14 days after administration (dose 30.0 mg/kg): 9.9%

Reference: patent publication US20050214375A1, “Process for producing block copolymer/drug composite” (priority 2002, published 2005)
